Data from article PMC10810197, “A KDPG sensor RccR governs Pseudomonas aeruginosa carbon metabolism and aminoglycoside antibiotic tolerance” (Nucleic Acids Research, 2023).

How the values were obtained:
[1] = molecular target: T1, RccR (PA5438) (Pseudomonas aeruginosa, UniProt Q9HTC8); assay: isothermal titration calorimetry; type: binding
T1 construct: tetramer in crystal

[2] = molecular target: T1, RccR (PA5438); assay: X-ray crystal structure of the complex, […] Å; type: binding; settings: space group I222, four monomers each with KDPG; PDB code not given
[3] = molecular target: RccR (PA5438) (Pseudomonas aeruginosa, UniProt Q9HTC8, S185A); assay: biochemical
Chain of RccR (PA5438) (Pseudomonas aeruginosa, UniProt Q9HTC8, S185A) (Q9HTC8 whole entry S185A): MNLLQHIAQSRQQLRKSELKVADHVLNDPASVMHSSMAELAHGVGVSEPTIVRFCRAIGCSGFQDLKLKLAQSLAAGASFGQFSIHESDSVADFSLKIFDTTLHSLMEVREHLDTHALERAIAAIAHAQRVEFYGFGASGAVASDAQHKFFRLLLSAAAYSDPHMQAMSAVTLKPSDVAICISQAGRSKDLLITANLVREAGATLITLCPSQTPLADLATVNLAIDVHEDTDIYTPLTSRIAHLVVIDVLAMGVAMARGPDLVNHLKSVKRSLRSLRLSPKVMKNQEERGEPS

[4] = molecular target: RccR (PA5438) (Pseudomonas aeruginosa, UniProt Q9HTC8, S183A); assay: biochemical
Chain of RccR (PA5438) (Pseudomonas aeruginosa, UniProt Q9HTC8, S183A) (Q9HTC8 whole entry S183A): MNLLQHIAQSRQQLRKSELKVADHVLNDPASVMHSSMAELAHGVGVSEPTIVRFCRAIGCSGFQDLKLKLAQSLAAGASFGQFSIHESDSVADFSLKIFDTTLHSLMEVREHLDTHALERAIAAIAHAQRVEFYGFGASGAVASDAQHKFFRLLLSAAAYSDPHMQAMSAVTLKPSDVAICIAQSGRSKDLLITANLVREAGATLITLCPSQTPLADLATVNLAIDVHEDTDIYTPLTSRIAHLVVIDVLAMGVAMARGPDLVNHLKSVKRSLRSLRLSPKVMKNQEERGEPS

[5] = molecular target: RccR (PA5438) (Pseudomonas aeruginosa, UniProt Q9HTC8, S188A); assay: biochemical
Chain of RccR (PA5438) (Pseudomonas aeruginosa, UniProt Q9HTC8, S188A) (Q9HTC8 whole entry S188A): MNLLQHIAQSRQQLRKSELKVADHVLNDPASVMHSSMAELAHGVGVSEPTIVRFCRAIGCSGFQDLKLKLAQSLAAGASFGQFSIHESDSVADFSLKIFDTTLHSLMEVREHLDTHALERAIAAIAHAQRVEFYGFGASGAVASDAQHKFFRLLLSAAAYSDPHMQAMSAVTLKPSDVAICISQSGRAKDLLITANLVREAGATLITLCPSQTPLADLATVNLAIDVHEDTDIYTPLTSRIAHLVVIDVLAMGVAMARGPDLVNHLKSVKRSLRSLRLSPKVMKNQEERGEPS

T1 sequence (Q9HTC8 entry or part of it): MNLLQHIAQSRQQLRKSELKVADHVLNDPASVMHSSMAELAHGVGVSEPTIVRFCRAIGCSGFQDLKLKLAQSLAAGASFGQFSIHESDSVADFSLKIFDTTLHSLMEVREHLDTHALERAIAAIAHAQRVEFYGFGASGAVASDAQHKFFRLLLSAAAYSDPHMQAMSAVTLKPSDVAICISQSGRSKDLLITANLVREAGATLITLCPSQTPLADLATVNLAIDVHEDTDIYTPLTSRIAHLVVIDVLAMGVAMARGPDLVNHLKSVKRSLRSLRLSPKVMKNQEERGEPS

Q: O=C(O)C(=O)C[C@H](O)[C@H](O)COP(=O)(O)O [KDPG] was tested. Which Kd [1] did it give?
A: 3.31 µM

Q: And the “X-ray crystal structure of the complex, 1.9 Å” value [2]?
A: Each monomer in this complex structure harbors a well-defined signal molecule KDPG

Q: And the Kd [3]?
A: 21 µM

Q: And the Kd [4]?
A: 28.7 µM

Q: What about the Kd [5] of the same compound?
A: 15.7 µM
